Results reported in patent publication US9373800B2, “Organic light emitting element having lithium—boron complex” (CANON KABUSHIKI KAISHA, priority 2014, dated 2016).

Test: Evaluation of stability to water (100 nm deposited film, water dropped, thickness step height meter)
Assay type: physicochemical
Conditions: for State of the film after water was dropped, After 1 min / State of the film after water was dropped, After 10 min: 100 nm film deposited on glass substrate, water dropped onto film, Alpha-Step; for State of the film after water was dropped, After 1 min: after 1 minute; for Dissolution of the film in water (text summary of Table 1): film soaked in water
Method: Water was dropped onto the films, and the states of the films were examined after 1 minute and 10 minutes with a thickness step height meter (Alpha-Step).

SMILES | State of the film after water was dropped, After 1 min | State of the film after water was dropped, After 10 min | Dissolution of the film in water (text summary of Table 1)
[F-].[Li+] [Comparative compound 1, lithium fluoride] | Dissolved | Dissolved | dissolved immediately
[Cs+].[F-] [Comparative compound 2, cesium fluoride] | Dissolved | Dissolved | dissolved immediately
[Li+].c1cnn([B-](n2cccn2)(n2cccn2)n2cccn2)c1 [Comparative compound 3] | Partially dissolved | Dissolved | gradually dissolved
